# In the supplement of paper PMC10307832:
# How the values were obtained:
# Assay in all cases: relative viability (nuclei count vs DMSO), 5 days (fraction); higher = more cells survive
# Bosutinib + Palbociclib = compound: COc1cc(Nc2c(C#N)cnc3cc(OCCCN4CCN(C)CC4)c(OC)cc23)c(Cl)cc1Cl [Bosutinib] + CC(=O)c1c(C)c2cnc(Nc3ccc(N4CCNCC4)cn3)nc2n(C2CCCC2)c1=O [Palbociclib] (partner 0.5 µM)
# Summary of the method: (§1)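 Lung cancer cell lines, seeded in 1536-well plates, were treated the following day by pin tool with a single drug or with five library-drug doses (not always all listed) in √10 steps on top of a fixed anchor-drug dose. Cells were fixed and nuclei stained in one step after 5 days, and nuclei were counted. Relative viability is the nuclei count for treated wells divided by that for vehicle wells, reported as medians of duplicate plates.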
# Bosutinib + Bortezomib = compound: COc1cc(Nc2c(C#N)cnc3cc(OCCCN4CCN(C)CC4)c(OC)cc23)c(Cl)cc1Cl [Bosutinib] + CC(C)C[C@H](NC(=O)[C@H](Cc1ccccc1)NC(=O)c1cnccn1)B(O)O [Bortezomib] (partner 0.002 µM)
# Summary of the method: as §1
# Bosutinib + Lapatinib = compound: COc1cc(Nc2c(C#N)cnc3cc(OCCCN4CCN(C)CC4)c(OC)cc23)c(Cl)cc1Cl [Bosutinib] + CS(=O)(=O)CCNCc1ccc(-c2ccc3ncnc(Nc4ccc(OCc5cccc(F)c5)c(Cl)c4)c3c2)o1 [Lapatinib] (partner 2 µM)
# Summary of the method: as §1
# Bosutinib + Pictilisib = compound: COc1cc(Nc2c(C#N)cnc3cc(OCCCN4CCN(C)CC4)c(OC)cc23)c(Cl)cc1Cl [Bosutinib] + CS(=O)(=O)N1CCN(Cc2cc3nc(-c4cccc5[nH]ncc45)nc(N4CCOCC4)c3s2)CC1 [Pictilisib] (partner 1 µM)
# Summary of the method: as §1
# Bosutinib + Pemetrexed = compound: COc1cc(Nc2c(C#N)cnc3cc(OCCCN4CCN(C)CC4)c(OC)cc23)c(Cl)cc1Cl [Bosutinib] + Nc1nc2[nH]cc(CCc3ccc(C(=O)N[C@@H](CCC(=O)O)C(=O)O)cc3)c2c(=O)[nH]1 [Pemetrexed] (partner 0.2 µM)
# Summary of the method: as §1
Cell Line,relative viability (Bosutinib + Palbociclib; first compound 0.01 µM),relative viability (Bosutinib + Palbociclib; first compound 0.03162 µM),relative viability (Bosutinib + Palbociclib; first compound 0.1 µM),relative viability (Bosutinib + Palbociclib; first compound 1 µM),relative viability (Bosutinib + Bortezomib; first compound 0.01 µM),relative viability (Bosutinib + Bortezomib; first compound 0.03162 µM),relative viability (Bosutinib + Bortezomib; first compound 0.1 µM),relative viability (Bosutinib + Bortezomib; first compound 1 µM),relative viability (Bosutinib + Lapatinib; first compound 0.01 µM),relative viability (Bosutinib + Lapatinib; first compound 0.03162 µM),relative viability (Bosutinib + Lapatinib; first compound 0.1 µM),relative viability (Bosutinib + Lapatinib; first compound 1 µM),relative viability (Bosutinib + Pictilisib; first compound 0.01 µM),relative viability (Bosutinib + Pictilisib; first compound 0.03162 µM),relative viability (Bosutinib + Pictilisib; first compound 0.1 µM),relative viability (Bosutinib + Pictilisib; first compound 1 µM),relative viability (Bosutinib + Pemetrexed; first compound 0.01 µM),relative viability (Bosutinib + Pemetrexed; first compound 0.03162 µM),relative viability (Bosutinib + Pemetrexed; first compound 0.1 µM),relative viability (Bosutinib + Pemetrexed; first compound 1 µM)
HCC-366,0.423,0.365,0.375,0.247,1.11,1.01,1.06,0.989,1.16,0.942,0.939,0.884,0.154,0.144,0.181,0.121,0.167,0.158,0.162,0.166
HCC-827,0.439,0.473,0.469,0.196,1.03,1,1.03,0.928,0.167,0.25,0.19,0.169,0.971,0.763,1.12,0.749,0.248,0.282,0.273,0.231
HOP-62,0.378,0.487,0.473,0.447,0.839,0.755,0.548,0.904,0.977,1.12,1.08,1.01,0.898,0.787,0.698,0.819,0.297,0.414,0.317,0.317
LC-2-ad,0.498,0.507,0.522,0.478,1.05,0.98,1.02,1.14,0.99,0.92,1.05,1.01,0.571,0.45,0.459,0.419,0.266,0.306,0.287,0.27
LCLC-97TM1,0.224,0.245,0.256,0.2,0.567,0.937,0.894,0.572,1.43,1.29,1.24,1.14,0.182,0.221,0.254,0.267,0.18,0.181,0.211,0.228
LCLC-103H,0.497,0.498,0.452,0.491,1.03,1.13,1.13,0.936,–,–,–,–,0.632,0.68,0.702,0.646,0.442,0.516,0.5,0.449
LK-2,0.681,0.636,0.584,0.66,–,–,–,–,0.848,1.12,0.944,0.803,0.645,0.603,0.577,0.378,0.235,0.281,0.321,0.266
NCI-H358,0.154,0.141,0.139,0.128,–,–,–,–,0.558,0.476,0.41,0.543,0.407,0.368,0.363,0.379,0.152,0.163,0.18,0.163
NCI-H441,0.193,0.217,0.262,0.22,0.579,0.726,0.44,0.806,–,–,–,–,0.669,0.483,0.634,0.459,0.242,0.272,0.264,0.251
NCI-H522,1.07,0.93,0.996,0.8,–,–,–,–,–,–,–,–,–,–,–,–,0.982,0.985,0.86,0.863
NCI-H596,–,–,–,–,1,0.967,1.11,1.02,1.07,0.991,1.07,1.1,0.398,0.369,0.405,0.392,0.576,0.464,0.503,0.505
NCI-H727,0.642,0.673,0.63,0.632,0.913,0.777,0.969,0.71,0.781,0.767,0.781,0.384,0.447,0.435,0.297,0.282,–,–,–,–
NCI-H1395,0.595,0.539,0.643,0.48,–,–,–,–,1.26,1.06,0.914,1.08,0.597,0.758,0.818,0.719,0.964,0.966,0.958,0.926
NCI-H1703,–,–,–,–,0.34,0.332,0.402,0.236,1.04,1.1,0.825,0.653,0.246,0.235,0.242,0.228,–,–,–,–
NCI-H1793,0.272,0.311,0.326,0.266,–,–,–,–,0.864,0.839,0.438,0.497,0.394,0.321,0.383,0.292,0.86,0.792,0.829,0.639
NCI-H1944,0.363,0.362,0.373,0.298,–,–,–,–,0.834,0.803,0.865,0.736,0.35,0.327,0.333,0.345,0.706,0.624,0.555,0.601
NCI-H2170,0.351,0.373,0.383,0.4,–,–,–,–,0.268,0.268,0.282,0.282,0.348,0.359,0.301,0.271,0.261,0.262,0.251,0.26
NCI-H2342,0.539,0.508,0.545,0.579,–,–,–,–,–,–,–,–,–,–,–,–,0.783,0.799,0.813,0.841
SK-MES-1,0.329,0.327,0.326,0.295,–,–,–,–,0.435,0.512,0.555,0.505,0.374,0.351,0.437,0.305,0.94,1.03,0.938,0.556
